In US5283247A, “Anticonvulsant substituted quinazolones” (Research Corporation Technologies, Inc., priority 1992, dated 1994):

What was measured:
[1] = cited from earlier work
[2] = reference 3; cited from earlier work
[3] = pentylenetetrazol (90 mg/kg sc) induced seizures in mice, percent protection; assay type: in vivo, male mice (Swiss-Webster); conditions: for Percent Protection: 100 mg/kg ip, pentylenetetrazol 90 mg/kg sc one hour later, observed 60 minutes (Table 3); for Percent Protection / protection against pentylenetetrazol seizures: mice; for Percent Protection against pentylenetetrazol (dose response): pentylenetetrazol 90 mg/kg s.c. given 1 hour after; for Percent Protection against pentylenetetrazol (time response): pentylenetetrazol 90 mg/kg s.c.; for protection against pentylenetetrazol seizures: Example 6, 100 mg/kg ip
Experimental: (§1) The mice were divided in groups of 10, keeping the group weights equal as far as possible. The quinazolones shown in Table 2 as well as methaqualone were injected ip (100 mg/kg) in a 5% aqueous suspension of gum acacia to one group of 10 animals. One hour after the administration of quinazolones, the mice were injected with pentylenetetrazol (90 mg/kg) sc under the loose skin of the back. […] The mice were then observed for the following 60 minutes for the occurrence of seizures. One episode of clonic spasm which persisted for a minimum period of 5 seconds was considered a threshold convulsion. Transient intermittent jerks or tremulousness were not taken into account. Animals devoid of even a threshold convulsion during the period of 60 minutes were considered protected. […] Mortality was recorded 24 hours after the pentylenetetrazol injection. After the injection of test compounds, behavioral observations were also made. […] 2 and compound no.
(§2) Dose response and time response studies were performed with compound no. 2 by injecting it into a group of 10 male Swiss-Webster mice. In addition, a group of 10 male ICR mice were injected with different dosages of compound no. 2 to determine the approximate LD50.

[4] = 24 hour mortality / toxicity in mice after test compound and pentylenetetrazol; assay type: in vivo, male mice (Swiss-Webster); conditions: for 24 Hour Mortality: 100 mg/kg ip, 24 hours after pentylenetetrazol injection, groups of 10; for toxicity at the effective dosage: Example 6, 100 mg/kg ip
Experimental: as §1

[5] = Maximal Electric Shock (MES) seizure in mice; assay type: in vivo; conditions: 30 mg/kg ip in mice
Experimental: In addition, compound no. 2 was also tested against Maximal Electric Shock (MES) seizure. Compound no.
(§3) Maximal electroshock seizures were elicited with a 60 cycle alternating current of 50mA intensity (5-7 times that necessary to elicit minimal electroshock seizures) delivered for 0.2 seconds via corneal electrodes. A drop of 0.9% saline was instilled in the eye prior to application of the electrodes in order to […]. Abolition of the hind limb tonic extension component of the seizure was defined as protection.

[6] = behavioral observations / gross CNS effects in mice; assay type: in vivo, male mice (Swiss-Webster); conditions: 100 mg/kg ip, after injection of test compounds
Experimental: The mice were divided in groups of 10, keeping the group weights equal as far as possible. The quinazolones shown in Table 2 as well as methaqualone were injected ip (100 mg/kg) in a 5% aqueous suspension of gum acacia to one group of 10 animals. One hour after the administration of quinazolones, the mice were injected with pentylenetetrazol (90 mg/kg) sc under the loose skin of the back. […] The mice were then observed for the following 60 minutes for the occurrence of seizures. One episode of clonic spasm which persisted for a minimum period of 5 seconds was considered a threshold convulsion. Transient intermittent jerks or tremulousness were not taken into account. Animals devoid of even a threshold convulsion during the period of 60 minutes were considered protected. […] Mortality was recorded 24 hours after the pentylenetetrazol injection. After the injection of test compounds, behavioral observations were also made.

approximate LD50 in mice = conditions: mouse, in vivo, ip; male ICR mice, observed 24 hours
Experimental: as §2
Approximate LD50 was determined in male ICR mice.

[7] = pentylenetetrazol-induced seizure in rats; assay type: in vivo; conditions: 50 mg/kg orally
Experimental: (§4) Compound No. 2 was also tested in rats. Four rats were treated with compound no. 2 at a dosage of 50 mg/kg orally. Anticonvulsant effects of compound no. […] The toxic symptoms were also observed. It can be seen from this table that compound no.

toxic symptoms in rats = assay type: in vivo; conditions: 50 mg/kg orally
Experimental: as §4

[8] = maximal electric shock seizures (MES) in rats; assay type: in vivo; conditions: 50 mg/kg orally
Experimental: as §4, §3

[9] = therapeutic index compared with methaqualone; conditions: conclusion from Examples 6, 7 and 8

## Cc1nc2ccccc2c(=O)n1-c1ccccc1C(F)(F)F [2-methyl-3-(2-trifluoromethylphenyl)-4-quinazolone]
[1]; reference 4
  sedative effect compared with methaqualone: better sedative effect
  toxicity compared with methaqualone: lower toxicity

## Cc1ccccc1-n1c(C)nc2ccccc2c1=O [Compound 1, 2-methyl-3-o-tolyl-4-quinazolone]
[2]
  metabolism in the body: metabolized in the body to the N^1 -oxide of the compound
[3]
  Percent Protection: 100%
[4]
  24 Hour Mortality: 0
[1]; in vivo
  abuse potential: high abuse potential

## Cc1cccnc1-n1c(C)nc2ccccc2c1=O [Compound 2, 2-Methyl-3-(3-methyl-2-pyridyl)-4-quinazolone]
[5]
  protection against MES: 100%
[6]
  Behavioral Observations: mild sedation
[3]; 40 mg/kg i.p.
  Percent Protection against pentylenetetrazol (dose response): 20%
[3]; 60 mg/kg i.p.
  Percent Protection against pentylenetetrazol (dose response): 80%
[3]; 80 mg/kg i.p.
  Percent Protection against pentylenetetrazol (dose response): 90%
[3]; 100 mg/kg i.p.
  Percent Protection against pentylenetetrazol (dose response): 100%
[3]
  Percent Protection: 100%
  protection against pentylenetetrazol seizures: 100%
[3]; 1 hr after injection, 100 mg/kg i.p.
  Percent Protection against pentylenetetrazol (time response): 100%
[3]; 2 hr after injection, 100 mg/kg i.p.
  Percent Protection against pentylenetetrazol (time response): 60%
[3]; 3 hr after injection, 100 mg/kg i.p.
  Percent Protection against pentylenetetrazol (time response): 0%
[3]; 4 hr after injection, 100 mg/kg i.p.
  Percent Protection against pentylenetetrazol (time response): 0%
Approximate LD50 in mice
  LD50 at 24 h: ~1000 mg/kg
[7]; 0.25 Hr., three rats
  Percent protection against pentylenetetrazol: 33.3%
[7]; 0.5 Hr., four rats
  Percent protection against pentylenetetrazol: 75%
[7]; 1 Hr., four rats
  Percent protection against pentylenetetrazol: 25%
[7]; 4 Hr., four rats
  Percent protection against pentylenetetrazol: 25%
[7]; all time periods, Example 8
  protection against pentylenetetrazol-induced seizure: protected against both MES and pentylenetetrazol-induced seizure at all time periods
[4]
  24 Hour Mortality: 0
  toxicity at the effective dosage: did not exhibit any toxicity
Toxic symptoms in rats; 0.25 Hr.
  Toxicity in percent rats: 0%
Toxic symptoms in rats; 0.5 Hr.
  Toxicity in percent rats: 0%
Toxic symptoms in rats; 1 Hr.
  Toxicity in percent rats: 0%
Toxic symptoms in rats; 2 Hr.
  Toxicity in percent rats: 0%
Toxic symptoms in rats; 4 Hr.
  Toxicity in percent rats: 0%
Toxic symptoms in rats; rats, all time periods, Example 8
  toxic symptoms: without exhibiting any toxic symptoms
[8]; 0.25 Hr.
  Percent protection against MES: 75%
[8]; 0.5 Hr.
  Percent protection against MES: 50%
[8]; 1 Hr.
  Percent protection against MES: 75%
[8]; 2 Hr.
  Percent protection against MES: 50%
[8]; 4 Hr.
  Percent protection against MES: 25%
[8]; all time periods, Example 8
  protection against MES: protected against both MES and pentylenetetrazol-induced seizure at all time periods
[9]
  therapeutic index versus methaqualone: higher therapeutic indices than methaqualone

## Cc1ccccc1-n1c(C)nc2cc(N)ccc2c1=O [Compound 14, 2-Methyl-3-o-tolyl-7-amino-4-quinazolone]
[6]
  Behavioral Observations: none
[3]
  Percent Protection: 100%
  protection against pentylenetetrazol seizures: 100%
[4]
  24 Hour Mortality: 0
  toxicity at the effective dosage: did not exhibit any toxicity
[9]
  therapeutic index versus methaqualone: higher therapeutic indices than methaqualone
